Data taken from the RepoRT retention time repository (doi:10.1016/j.foodchem.2021.129757).

Assays:
Conditions in all cases: stereoisomer not certain
[1] = Other, Phenomenex Kinetex PFP, 100 × 4.6 mm, 5 µm, 45 °C, 0.6 mL/min, estimated dead time 1.8 min; A: water + 0.1% trifluoroacetic acid, pH 2; B: methanol; gradient (min/%B) 0/40 20/72 21/40
[2] = RP, Waters ACQUITY UPLC BEH Shield RP18, 150 × 2.1 mm, 1.7 µm, 40 °C, 0.4 mL/min, estimated dead time 0.83 min; A: water + 0.1% formic acid, pH 3; B: acetonitrile + 0.1% formic acid, pH 3; gradient (min/%B) 0/0 30/50 31/100 37/100 37.1/0
[3] = RP, Agilent ZORBAX Eclipse XDB-C18, 100 × 2.1 mm, 1.8 µm, 50 °C, 0.4 mL/min, estimated dead time 0.55 min; A: water + 0.1% formic acid, pH 3; B: methanol + 0.1% formic acid, pH 3; gradient (min/%B) 0/2 10/100 14.5/100 14.51/2 16.5/2
[4] = RP, Phenomenex Luna Omega Polar C18, 100 × 2.1 mm, 1.6 µm, 40 °C, 0.5 mL/min, estimated dead time 0.44 min; A: water + 0.1% formic acid + 10 mM ammonium formate; B: acetonitrile; gradient (min/%B) 0/5 8/20 10/100 12/100 12.1/5 14/5
[5] = RP, Phenomenex Synergi Hydro-RP, 150 × 2 mm, 4 µm, 30 °C, 0.5 mL/min, estimated dead time 0.6 min; A: water + 0.1% formic acid, pH 3; B: acetonitrile + 0.1% formic acid, pH 3; gradient (min/%B) 0/5 1/5 35/45 40/100 45/100
[6] = RP, Agilent InfinityLab Poroshell 120 EC-C18, 100 × 3 mm, 2.7 µm, 25 °C, 0.4 mL/min, estimated dead time 1.1 min; A: water + 0.1% formic acid, pH 3; B: acetonitrile + 0.1% formic acid, pH 3; gradient (min/%B) 0/5 10/25 20/40 24/90 25/90 26/5 30/5
[7] = RP, Phenomenex Luna Omega Polar C18, 100 × 2.1 mm, 1.6 µm, 40 °C, 0.5 mL/min, estimated dead time 0.44 min; A: water + 0.5% formic acid; B: acetonitrile + 0.5% formic acid; gradient (min/%B) 0/5 3/50 3.1/100 5/100 5.1/5 7/5
[8] = RP, Waters ACQUITY UPLC BEH C18, 100 × 2.1 mm, 1.7 µm, 65 °C, 0.4 mL/min, estimated dead time 0.55 min; A: water + 0.1% formic acid, pH 3; B: 80% acetonitrile + 20% acetone + 0.1% formic acid, pH 3; gradient (min/%B) 0/0 5/100 5.5/0 6/0
[9] = RP, Waters ACQUITY UPLC HSS T3, 100 × 2.1 mm, 1.8 µm, 30 °C, 0.4 mL/min, estimated dead time 0.55 min; A: water + 0.1% formic acid, pH 3; B: acetonitrile + 0.1% formic acid, pH 3; gradient (min/%B) 0/0 2/0 15/100 22/100 22.1/0 26/0
[10] = RP, Phenomenex Luna C18, 150 × 4.6 mm, 3 µm, 25 °C, 0.5 mL/min, estimated dead time 3.2 min; A: water + 0.1% formic acid, pH 3; B: acetonitrile + 0.1% formic acid, pH 3; gradient (min/%B) 0/0 30/30 35/40 50/80 52/80 60/0 65/0
[11] = RP, 50 × 0.5 mm, 2.7 µm, 35 °C, 0.01 mL/min, estimated dead time 0.62 min; A: water + 0.1% formic acid, pH 3; B: acetonitrile + 0.1% formic acid, pH 3; gradient (min/%B) 0/5 12/95 14/95 16/5
[12] = RP, Waters ACQUITY UPLC BEH Shield RP18, 100 × 2.1 mm, 1.7 µm, 30 °C, 0.6 mL/min, estimated dead time 0.37 min; A: water + 0.1% formic acid, pH 3; B: acetonitrile + 0.1% formic acid, pH 3; gradient (min/%B) 0/0 2/0 7/10 22/95 22.1/0 26/0
[13] = RP, 150 × 2.1 mm, 2.6 µm, 40 °C, 0.35 mL/min, estimated dead time 0.94 min; A: water + 0.1% formic acid, pH 3; B: acetonitrile + 0.1% formic acid, pH 3; gradient (min/%B) 0/0 1/0 12.5/100 14/100 14.2/0 15/0
[14] = RP, 150 × 2.1 mm, 2.6 µm, 40 °C, 0.35 mL/min, estimated dead time 0.94 min; A: water + 0.1% formic acid, pH 3; B: acetonitrile + 0.1% formic acid, pH 3; gradient (min/%B) 0/0 1/5 7/45 8.5/80 10.5/80 11/5 12/5
[15] = RP, Waters Atlantis T3, 100 × 2.1 mm, 3 µm, 40 °C, 0.3 mL/min, estimated dead time 0.73 min; A: water + 0.1% trifluoroacetic acid, pH 2; B: acetonitrile + 0.1% trifluoroacetic acid, pH 2; gradient (min/%B) 0/10 1/10 6/40 7/50 8/50 14/70 16/80 20/10 25/10
[16] = RP, Merck LiChrospher RP-18, 250 × 4 mm, 5 µm, 35 °C, 0.3 mL/min, estimated dead time 6.7 min; A: water + 0.5% formic acid; B: acetonitrile + 0.5% formic acid; gradient (min/%B) 0/5 10/5 30/15 45/20 65/20 95/54 110/63 115/5 135/5
[17] = RP, Agilent ZORBAX RRHD Eclipse Plus C18, 50 × 2.1 mm, 1.8 µm, 30 °C, 0.4 mL/min, estimated dead time 0.28 min; A: water + 0.1% formic acid, pH 3; B: acetonitrile + 0.1% formic acid, pH 3; gradient (min/%B) 0/1 5/10 8/25 9.1/99 10/99 12/1
[18] = RP, Agilent ZORBAX RRHD Eclipse Plus C18, 50 × 2.1 mm, 1.8 µm, 30 °C, 0.4 mL/min, estimated dead time 0.28 min; A: water + 0.1% formic acid, pH 3; B: acetonitrile + 0.1% formic acid, pH 3; gradient (min/%B) 0/1 5/10 8/25 9.1/99 10/99 12/99
[19] = RP, Phenomenex Kinetex EVO C18, 100 × 2.1 mm, 2.6 µm, 40 °C, 0.4 mL/min, estimated dead time 0.55 min; A: water + 0.2% formic acid; B: acetonitrile + 0.2% formic acid; gradient (min/%B) 0/5 0.5/5 7/95 8/95 8.5/5 12/5
[20] = RP, Waters ACQUITY UPLC HSS T3, 100 × 2.1 mm, 50 °C; A: water + 0.1% formic acid, pH 3; B: 30% methanol + 70% acetonitrile + 0.1% formic acid, pH 3; gradient (min/%B) 0/5 1/8 2/15 3/40 4/70 4.5/100 5/100 6.4/100 6.6/5 6.8/5 7/5

SMILES | LC retention time [1] [min] | LC retention time [2] [min] | LC retention time [3] [min] | LC retention time [4] [min] | LC retention time [6] [min] | LC retention time [7] [min] | LC retention time [9] [min] | LC retention time [11] [min] | further results
O=c1c(OC2OC(CO)C(O)C(O)C2O)c(-c2ccc(OS(=O)(=O)O)c(O)c2)oc2cc(O)cc(O)c12 (stereo not drawn) [Isoquercitrin 4-O-sulfate] | 7.77 | – | – | – | – | – | – | – | –
O=C1c2c(O)cc(O)cc2OC(c2cc(O)c(OS(=O)(=O)O)c(O)c2)C1O (stereo not drawn) [Ampelopsin-4-O-sulfate] | 7.54 | – | – | – | – | – | – | – | –
COc1cc(CC2COC(c3ccc(O)c(OC)c3)C2CO)ccc1O (single isomer, unassigned; (+)) [(+)-Lariciresinol] | – | 15 | 5.5 | 9.31 | 12.1 | 2.68 | 10.2 | 5.08 | LC retention time [5]: 19.4 min; LC retention time [8]: 2.48 min; LC retention time [10]: 32.2 min; LC retention time [12]: 13.5 min
OCCc1ccc(O)c(O)c1 [Hydroxytyrosol] | – | 3.26 | 2.44 | 2.05 | 3.8 | – | 7.27 | 1.67 | LC retention time [10]: 8.55 min
Cc1ccc(O)c(O)c1 [4-methylcatechol] | 6.24 | – | – | – | – | – | – | – | –
O=c1c(O)c(-c2cc(O)c(OS(=O)(=O)O)c(O)c2)oc2cc(O)cc(O)c12 [Myricetin 4-O-sulfate] | 15.2 | – | – | – | – | – | – | – | –
O=c1cc(-c2ccc(OS(=O)(=O)O)c(O)c2)oc2cc(OS(=O)(=O)O)cc(O)c12 [Luteolin 7,4-disulfate] | 11.9 | – | – | – | – | – | – | – | –
O=C1CC(c2ccc(O)cc2)Oc2cc(O)cc(O)c21 (stereo not drawn) [Naringenin] | – | 21.1 | – | – | 16.3 | – | 11.6 | – | LC retention time [13]: 7.61 min; LC retention time [14]: 7.97 min; LC retention time [15]: 10.1 min; LC retention time [16]: 95.6 min
COc1c(O)cc(C(=O)O)cc1OS(=O)(=O)O [4-O-methylgallic acid 3-O-sulfate] | – | – | 2.27 | 1.78 | 3.61 | 1.41 | 7.32 | 1.84 | LC retention time [17]: 3.6 min; LC retention time [5]: 5.32 min; LC retention time [10]: 11.7 min; LC retention time [18]: 1.15 min; LC retention time [12]: 10.4 min
COc1cc(C2C3C=C(C4Oc5cc(O)cc(O)c5C(=O)C4O)C4C2COC4(O)C3=O)ccc1O (stereo not drawn) [Silydianin] | 21.5 | – | – | – | – | – | – | – | –
CC=C1C(OC2OC(CO)C(O)C(O)C2O)OC=C(C(=O)OC)C1CC(=O)OCCc1ccc(O)c(O)c1 (stereo not drawn) [Oleuropein] | – | – | – | – | – | – | – | – | LC retention time [19]: 5.24 min; LC retention time [15]: 8.38 min; LC retention time [16]: 83.2 min
O=c1cc(-c2ccc(OS(=O)(=O)O)c(O)c2)oc2cc(O)cc(O)c12 [Luteolin 4-sulfate] | 17.1 | – | – | – | – | – | – | – | –
OCC1OC(Oc2cc3c(O)cc(O)cc3[o+]c2-c2ccc(O)c(O)c2)C(O)C(O)C1O (stereo not drawn) [Cyanidin 3-O-glucoside] | – | 7.98 | 3.52 | – | 5.65 | 1.76 | 7.85 | 3.25 | LC retention time [5]: 9.85 min; LC retention time [15]: 5.04 min; LC retention time [10]: 9.83 min; LC retention time [16]: 49 min; LC retention time [12]: 10.8 min
Cc1ccc(O)c(OS(=O)(=O)O)c1 [4-Methylcatechol monosulfate] | 4.92 | – | – | – | – | – | – | – | –
O=c1cc(-c2ccc(O)c(O)c2)oc2cc(OC3OC(CO)C(O)C(O)C3O)cc(O)c12 (stereo not drawn) [Luteolin 7-glucoside] | – | 12.4 | – | – | – | – | – | – | LC retention time [13]: 5.68 min; LC retention time [14]: 5.79 min; LC retention time [15]: 7.79 min; LC retention time [16]: 62.2 min
CCCCCCCCCCCCCCCCCCCCCCCCCc1cc(O)cc(O)c1 [Alkylresorcinol C25:0] | – | – | 13 | 11 | – | 5.12 | – | – | –
O=c1oc2cc(O)ccc2c2ccc(O)cc12 [Urolithin A] | – | 18.4 | 5.95 | 9.38 | 13.1 | 3.08 | 10.6 | 5.33 | LC retention time [19]: 5.59 min; LC retention time [10]: 35.8 min; LC retention time [12]: 14.9 min
CCCCCCCCCCCCCCCCCc1cc(O)cc(O)c1 [Alkylresorcinol C17:0] | – | – | 11.1 | 11.1 | – | 4.6 | 20.3 | 13.3 | –
Oc1cc(O)cc(O)c1 [Phloroglucinol] | 2.9 | – | – | – | – | – | – | – | –
CC1CCC2(C(=O)O)CCC3(C)C(=CCC4C5(C)CCC(O)C(C)(C)C5CCC43C)C2C1C (stereo not drawn) [Ursolic acid] | – | 34.2 | 10.7 | 10.9 | – | 1.8 | 18.1 | 11.2 | LC retention time [12]: 22.7 min
O=S(=O)(O)Oc1ccccc1O [Catechol O-sulfate] | – | 7.99 | 2.1 | 1.79 | 4.22 | – | – | – | LC retention time [17]: 2.95 min; LC retention time [5]: 4.29 min; LC retention time [20]: 2.26 min; LC retention time [10]: 18.2 min; LC retention time [18]: 1.45 min
